The values that follow come from publication PMC10537538, “Preclinical Investigation of a Lipoglycopeptide Dry Powder Inhalation Therapy for the Treatment of Pulmonary MRSA Infection” (Pharmaceutics, 2023).

For data set [1], the system named is MRSA ATCC BAA-1556 (USA300). As to the kind of experiment: MIC by CLSI broth microdilution, MRSA. The settings on record: for MIC: Staphylococcus aureus, read-out: MRSA MIC. It counts as cell-based, Staphylococcus aureus. The source says:
(§1) In Vitro Susceptibility. Clinical and Laboratory Standards Institute (CLSI) guidelines were followed for the determination of the minimum inhibitory concentration (MIC), using cation-adjusted Mueller Hinton broth microdilution at a starting inoculum level of 5 × 10^5 colony forming units (CFUs) per mL [24, 25]. MIC was read by optical density on a BioTek Synergy H1 plate reader (BioTek, Winooski, VT, USA) at 595 nm. Strains used were MRSA ATCC BAA-1556 (USA300, SCCmecIV, pvl^+) and MSSA ATCC 29213 (American Type Culture Collection, Manassas, VA, USA). MIC data are reported as a range to reflect the fact that the value is determined using step dilution.
(In general: Dilution methods test growth across graded concentrations, often in twofold steps.)

The subject of another data set is MSSA ATCC 29213. As to the kind of experiment: MIC by CLSI broth microdilution, MSSA. It counts as cell-based. The following applies: Staphylococcus aureus, read-out: MSSA MIC.
Source text: as §1

The conditions of data set [2]: cited from earlier work.

Where a name gives a salt, the structure may show the parent alone. Read-outs that look alike come from different tables or passages of the source.

What is called MIC is the lowest concentration found to suppress growth. Regarding `CCCCCCCCCCNC(=O)CN[C@@]1(C)C[C@H](O[C@H]2[C@H](Oc3c4cc5cc3Oc3ccc(cc3Cl)[C@@H](O)[C@@H](NC(=O)[C@@H](CC(C)C)NC)C(=O)N[C@@H](CC(N)=O)C(=O)N[C@H]5C(=O)N[C@H]3C(=O)N[C@H](C(=O)N[C@H](C(=O)O)c5cc(O)cc(O)c5-c5cc3ccc5O)[C@H](O)c3ccc(c(Cl)c3)O4)O[C@H](CO)[C@@H](O)[C@@H]2O)O[C@@H](C)[C@H]1O` [RV94, N^van-2-amino-N-decylacetamide vancomycin], the “pH needed to dissolve drug substance” value was more than 9. In addition, the “potency relative to vancomycin (fold more potent)” value in data set [1] (MIC, MSSA and MRSA isolates) is “ca. 15 fold”. Besides, in data set [1] (ATCC BAA-1556 (USA300), CLSI), the MIC lay within 0.031 to 0.063 µg/mL. Further, the MIC with MSSA ATCC 29213 (ATCC 29213, CLSI) is 0.031 to 0.063 µg/mL. In data set [2] (rat, in vivo, inhaled or intranasal), the “lung half-life, nebulized form” value is listed as “approximately 4.5 days”.
As for `CN[C@H](CC(C)C)C(=O)N[C@H]1C(=O)N[C@@H](CC(N)=O)C(=O)N[C@H]2C(=O)N[C@H]3C(=O)N[C@H](C(=O)N[C@H](C(=O)O)c4cc(O)cc(O)c4-c4cc3ccc4O)[C@H](O)c3ccc(c(Cl)c3)Oc3cc2cc(c3O[C@@H]2O[C@H](CO)[C@@H](O)[C@H](O)[C@H]2O[C@H]2C[C@](C)(N)[C@H](O)[C@H](C)O2)Oc2ccc(cc2Cl)[C@H]1O` [Vancomycin, Vancomycin HCl, reference compound], the MIC in data set [1] was in the range of 0.5 to 2 µg/mL; with MSSA ATCC 29213 it was 0.5 to 1 µg/mL.
In the case of `CCCCCCCCCCNCCN[C@@]1(C)C[C@H](O[C@H]2[C@H](Oc3c4cc5cc3Oc3ccc(cc3Cl)[C@@H](O)[C@@H](NC(=O)[C@@H](CC(C)C)NC)C(=O)N[C@@H](CC(N)=O)C(=O)N[C@H]5C(=O)N[C@H]3C(=O)N[C@H](C(=O)N[C@H](C(=O)O)c5cc(O)c(CNCP(=O)(O)O)c(O)c5-c5cc3ccc5O)[C@H](O)c3ccc(c(Cl)c3)O4)O[C@H](CO)[C@@H](O)[C@@H]2O)O[C@@H](C)[C@H]1O` [telavancin, reference compound], the “lung half-life, nebulized form” value in data set [2] (rats, inhalation of nebulized preparation) is recorded as “ca. 21 days”.
